In brackets after ≈: the same amount, converted by molar mass. Like-named read-outs stand apart in the source and are kept apart here.

In data set [1] the test system is CF bronchial epithelial (CFBE41o-) cell line. Details: method as in Hogan et al., 2018; Costabile et al., 2020. The following applies: CFBE41o- cells; ref Hogan et al., 2018; Costabile et al., 2020; cited from earlier work.
For another data set, the system named is S. aureus ATCC 25923. Kind of data set: MIC, 2-fold microdilution, resazurin method. The data set is classed as cell-based, Staphylococcus aureus. The following applies: Staphylococcus aureus, ATCC25923. (Dilution methods test growth across graded concentrations, often in twofold steps.)
In the next data set the target is T1, PAO1-FtsZ (Pseudomonas aeruginosa, UniProt P47204).
T1 construct: His-tag of pET-28a followed by PreScission site (His-tag inferred from the vector; the site is encoded in the forward primer) (N); made in house; host or cells: E. coli BL21(DE3)
Kind of data set: FtsZ GTPase activity assay (kinetics and inhibition). It is filed as biochemical. Particulars: read-out: IC50 toward PAO1-FtsZ. On the procedure:
The gene ftsZ (BCAL3457) was amplified from B. cenocepacia FCF19 using the primers pet28presFtsZfor (5′-[…]-3′) and pet28ftsZrev (5′-[…]-3′). The gene ftsZ of P. aeruginosa was amplified from the genomic DNA using the primers ftsZPAOfor28a (5′-[…] 3′) and ftsZPAOrev28a (5′-[…]-3′). The PCR products were cloned into the pET-28a vector (Novagen) using the In-Fusion HD Cloning kit (TaKaRa), according to the manufacturer's instructions.
All the recombinant FtsZ proteins were expressed at 20°C overnight in E. coli BL21(DE3) cells, upon induction with 0.5 mM IPTG, and purified using the same protocol assessed for the wild-type B. cenocepacia FtsZ (Hogan et al., [2018]).
GTPase enzyme activity was determined using a pyruvate kinase/L-lactic dehydrogenase (PK/LDH) spectrophotometric coupled assay (Ingerman and Nunnari, [2005]). The assays were performed at 30°C, in a reaction mixture containing […] Hepes pH 7.5, 5 mM MgCl2, 5 mM KCl, 10 U PK/LDH, 0.25 mM NADH, 0.25 mM PEP, and 5–10 μM FtsZ, and initiated by the addition of 0.5 mM GTP. Alternatively, GTPase activity was determined by measuring the release of phosphate using the malachite green assay (Baykov et al., [1988]).
Steady-state kinetic analysis was performed by assaying the activity at different GTP concentrations and parameters determined by fitting the data to the Michaelis-Menten equation using Origin 8 software. […]

Data set [2] deals with Burkholderia cenocepacia purified FtsZ protein (Burkholderia cenocepacia, UniProt B4E5Y7). Kind of data set: biochemical. The data set is classed as biochemical. The following applies: Yes/No.
A further data set has as its system B. cenocepacia J2315. Kind of data set: MIC, 2-fold microdilution, resazurin method. It is filed as cell-based, Burkholderia cenocepacia. Particulars: Burkholderia cenocepacia.
Another data set concerns B. cenocepacia FCF22. Kind of data set: MIC, 2-fold microdilution, resazurin method. It is filed as cell-based, Burkholderia cenocepacia. The following applies: Burkholderia cenocepacia; clinical isolate FCF22.
Another data set relates to B. cenocepacia FCF19. The data set can be described thus: MIC, 2-fold microdilution, resazurin method. The data set is classed as cell-based, Burkholderia cenocepacia. Particulars: Burkholderia cenocepacia; clinical isolate FCF19.
The test system of a further data set is B. cenocepacia. The data set can be described thus: Resazurin-based assay of BcNR reaction mixtures. The data set is classed as cell-based, Burkholderia cenocepacia. The following applies: BcNR reactions with 1 mM C109, with or without NADPH; C109 result: in the absence of NADPH. An excerpt:
To assess whether the resulting BcNR reduction product could inhibit B. cenocepacia growth, we carried out a resazurin-based assay.
For orientation: The colour change of resazurin is a common sign of viable cells or microbes.

The test system of the next data set is P. aeruginosa. The data set can be described thus: Checkerboard assay with efflux pump inhibitor PaβN MC-207.110. The data set is classed as cell-based, Pseudomonas aeruginosa. As for the experimental part:
The microtiter plates were incubated at 37°C for 48 (for B. cenocepacia) or 24 h (for all the other strains) and growth was determined by the resazurin method (Martin et al., [2006]). A solution of resazurin sodium salt (Sigma Aldrich) was prepared at 0.01% in distilled water and filter-sterilized. Thirty microliter of resazurin solution were added to each well after 1 or 2 days of incubation at 37°C, and the microtiters were re-incubated at the same temperature for 4 h. The MIC was defined as the lowest concentration of the drug that prevented a change in color from blue to pink, which indicates bacterial growth. […] Three independent biological replicates were used for each MIC determination.

Chain of Burkholderia cenocepacia purified FtsZ protein (B4E5Y7 entry or part of it): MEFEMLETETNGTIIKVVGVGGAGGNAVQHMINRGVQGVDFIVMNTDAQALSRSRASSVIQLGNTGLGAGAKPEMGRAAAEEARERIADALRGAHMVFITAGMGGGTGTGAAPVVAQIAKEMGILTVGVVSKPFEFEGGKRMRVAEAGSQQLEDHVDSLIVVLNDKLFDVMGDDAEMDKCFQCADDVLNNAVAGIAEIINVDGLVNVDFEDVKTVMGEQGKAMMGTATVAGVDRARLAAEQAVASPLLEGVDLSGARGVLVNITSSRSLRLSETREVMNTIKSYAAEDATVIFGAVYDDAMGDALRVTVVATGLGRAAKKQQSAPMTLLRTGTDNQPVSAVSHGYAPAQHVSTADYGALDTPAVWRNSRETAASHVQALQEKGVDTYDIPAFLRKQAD
T1 sequence (P47204 2-316): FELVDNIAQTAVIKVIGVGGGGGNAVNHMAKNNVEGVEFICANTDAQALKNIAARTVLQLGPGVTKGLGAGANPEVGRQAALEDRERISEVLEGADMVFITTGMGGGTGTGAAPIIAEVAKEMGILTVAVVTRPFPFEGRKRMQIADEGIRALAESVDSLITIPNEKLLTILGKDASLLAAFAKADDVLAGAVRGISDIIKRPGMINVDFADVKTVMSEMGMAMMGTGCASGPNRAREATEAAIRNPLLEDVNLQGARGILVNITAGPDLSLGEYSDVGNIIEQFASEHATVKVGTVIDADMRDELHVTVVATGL

Consider `COC(=O)CSc1ccc2nsnc2c1[N+](=O)[O-]` [C109, methyl [(4-nitro-2,1,3-benzothiadiazol-5-yl)thio]acetate], for which the “toxic concentration at 50% (TC50)” value in data set [1] is on record as “about 75 μM”. For the same compound, the MIC was 4 µg/mL (≈ 14 µM) with S. aureus ATCC 25923 (LB, 24 h, read-out: MIC S. aureus 25923); 4 µg/mL (≈ 14 µM) in the data set with S. aureus ATCC 25923 (Supplementary Table 1, read-out: MIC (µg/ml) S. aureus 25923); 8 µg/mL (≈ 28 µM) in the data set on B. cenocepacia J2315 (J2315, read-out: MIC (µg/ml) B. cenocepacia J2315); 8 µg/mL (≈ 28 µM) in the data set with B. cenocepacia J2315 (J2315, LB, 48 h, read-out: MIC B. cenocepacia J2315); 256 µg/mL (≈ 897 µM) with B. cenocepacia FCF22; 128 µg/mL (≈ 449 µM) in the data set on B. cenocepacia FCF19. Besides, the MIC in the data set on P. aeruginosa (Pseudomonas aeruginosa, read-out: MIC in the presence of MC-207.110, P. aeruginosa) was found to be 1 µg/mL. For the same compound, the IC50 on PAO1-FtsZ was 3.5 ± 1.9 µM. Besides, the “Inhibition of Bc FtsZ At 100 μM” value in data set [2] (100 μM compound) is listed as “Yes”. The “Inhibits B. cenocepacia FtsZ GTPase at 100µM?” value in data set [2] (100 µM, Supplementary Table 1) is on record as “Yes”. In the data set with B. cenocepacia, the “activity against B. cenocepacia growth” value is “still active”. For the same compound, the “effect of combination with MC-207.110” value in the data set with P. aeruginosa (checkerboard, P. aeruginosa) is recorded as “synergistic effect”.

In general, IC50 refers to the concentration needed to halve the response being measured.

(Values after paper PMC7154053, “Chemical, Metabolic, and Cellular Characterization of a FtsZ Inhibitor Effective Against Burkholderia cenocepacia” (Frontiers in Microbiology, 2020).)
